# What was measured:
# α5-GABAA receptor = details: cited from earlier work
# α5-GABAA = target: T1, α5-GABAA (Homo sapiens, UniProt P31644); details: cited from earlier work
# T1 sequence (P31644 32-462): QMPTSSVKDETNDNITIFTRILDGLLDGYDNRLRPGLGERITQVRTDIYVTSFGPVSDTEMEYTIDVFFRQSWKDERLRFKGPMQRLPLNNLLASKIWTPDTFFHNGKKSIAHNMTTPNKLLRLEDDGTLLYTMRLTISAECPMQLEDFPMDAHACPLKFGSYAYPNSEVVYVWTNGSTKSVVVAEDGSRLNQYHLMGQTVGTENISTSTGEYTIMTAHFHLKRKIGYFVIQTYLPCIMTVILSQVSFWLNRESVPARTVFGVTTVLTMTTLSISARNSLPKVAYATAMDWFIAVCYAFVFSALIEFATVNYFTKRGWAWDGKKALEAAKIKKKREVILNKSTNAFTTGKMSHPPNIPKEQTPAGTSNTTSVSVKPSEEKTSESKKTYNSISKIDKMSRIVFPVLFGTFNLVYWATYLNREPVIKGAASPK
# α5β3γ2 receptor = target: T2, α5β3γ2 receptor (Homo sapiens, UniProt P18507+P31644); assay: Supplementary data for cell level screening: new electrophysiology method (I. Lecker et al); format: cell-based
# T2 construct: expressed in transfected cells; host or cells: HEK-293 (stably transfected)
# T2 sequence (P28472 26-473 isoform P28472-2 partner limits assumed, one chain of several): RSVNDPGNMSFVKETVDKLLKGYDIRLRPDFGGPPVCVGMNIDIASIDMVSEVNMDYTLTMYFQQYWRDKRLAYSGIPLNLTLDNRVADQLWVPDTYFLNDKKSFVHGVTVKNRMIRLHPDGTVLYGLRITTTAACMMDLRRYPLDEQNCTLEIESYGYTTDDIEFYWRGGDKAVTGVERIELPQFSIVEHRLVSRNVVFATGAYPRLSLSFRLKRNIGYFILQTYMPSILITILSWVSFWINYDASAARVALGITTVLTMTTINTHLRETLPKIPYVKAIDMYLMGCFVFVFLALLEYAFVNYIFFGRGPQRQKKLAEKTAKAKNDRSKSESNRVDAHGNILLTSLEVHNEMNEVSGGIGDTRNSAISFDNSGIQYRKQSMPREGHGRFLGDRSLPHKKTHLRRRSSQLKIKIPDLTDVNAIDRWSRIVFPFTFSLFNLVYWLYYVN
# T2 sequence (P18507 40-475, one chain of several): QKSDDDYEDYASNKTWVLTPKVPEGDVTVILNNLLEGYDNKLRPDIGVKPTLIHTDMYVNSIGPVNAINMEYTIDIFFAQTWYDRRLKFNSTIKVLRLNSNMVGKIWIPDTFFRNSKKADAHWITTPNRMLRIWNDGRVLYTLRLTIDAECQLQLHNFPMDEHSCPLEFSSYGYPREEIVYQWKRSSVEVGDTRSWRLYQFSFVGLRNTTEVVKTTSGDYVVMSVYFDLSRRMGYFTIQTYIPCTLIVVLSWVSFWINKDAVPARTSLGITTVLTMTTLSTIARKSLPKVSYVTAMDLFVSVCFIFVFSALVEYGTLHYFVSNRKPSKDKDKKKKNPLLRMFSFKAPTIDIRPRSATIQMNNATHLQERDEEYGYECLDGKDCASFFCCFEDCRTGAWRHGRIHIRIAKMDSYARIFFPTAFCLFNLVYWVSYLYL
# [1] = Compound tissue distribution (brain/plasma); format: in vivo; details: brain and plasma, po; rat, 1 mg/kg p.o. in 5% DMSO+70% PEG400+25% H2O, one hour; read-out: Brain/Plasma ratio
# Protocol: The distribution ratio of blood brain tissue was calculated by comparing the concentration of compound in rat plasma and brain tissue. The experimental animals were divided into two groups, the plasma group and the brain group, each with three. To measure brain to plasma ratio, rats were administed compounds in 50% PEG400 p.o. at a dose of 10 mg compound to be tested/kg. One hour later, plasma and brain samples were taken. Concentrations of compounds in brain and plasma were detected using LC-MS/MS-AJ (Triple Quad 5500) assay and analyzed using Phoenix WinNonlin.
# We also measured the brain to plasma ratio of compound #24. The experimental animals were divided into two groups, the plasma group and the brain group, each with three. To measure the brain to plasma ratio, Rats were administered compounds (1 mg/kg in 5% DMSO+70% PEG400+25% H2O p.o.). One hour later, plasma and brain samples were taken. Concentrations of compounds in brain and plasma were detected using a LC-MS/MS-AJ (Triple Quad 5500) assay and analyzed using Phoenix WinNonlin.
structure (smiles),measurement,setting,value
"Cc1cc(-c2nncc3c(C(C)(C)C)c(OCc4ncnn4C)nn23)no1 [MRK016, 3-tert-butyl-7-(5-methylisoxazol-3-yl)-2-(1-methyl-1H-1,2,4-triazol-5-ylmethoxy) pyrazolo[1,5-d][1,2,4]triazine]",blocking of the binding of (^3H) R0-15-1788 in brain,α5-GABAA receptor,could efficiently block the binding
Cn1ncnc1COc1nn2c(-c3cc(CO)on3)nncc2c1C(C)(C)C [MRK016-M3],blocking of the binding of (^3H) R0-15-1788 in brain,α5-GABAA receptor,almost no blocking effect
"CCOC(=O)c1ncn2c1[C@@H]1CCCN1C(=O)c1cc(OC)ccc1-2 [L-655,708]",inhibition efficacy,"α5-GABAA; GABA 1 μM, highest dose of L-655,708",~15%
same,inhibition of the current induced by low level GABA,"α5-GABAA; GABA 5, 50 and 500 nM",in the concentration dependent manner
same,inhibition on the current induced by GABA,α5-GABAA; GABA concentration higher than 1 μM,no inhibition
"Cc1cc(-c2nnc3c4ccccc4c(OCc4ccc(C(=O)NCC5CC5)cn4)nn23)no1 [Compound 24, N-(cyclopropylmethyl)-6-(((3-(5-methylisoxazol-3-yl)-[1,2,4]triazolo[3,4-a]phthalazin-6-yl)oxy)methyl)nicotinamide]",Inverse agonism efficacy(%),"α5β3γ2 receptor; new method, CsCl intracellular solution, GABA 0.1˜0.3 CM, other procedures as previous method",−34.5%
same,inverse agonism efficacy of the compound/α5IA inverse agonism efficacy,α5β3γ2 receptor; ratio to the α5IA reference run above in the table (r4 or r29),1.855
same,Kp at 1 h,[1],0.044
